# Measured values: patent US11813277B2, “Methods and agents for modulating inflammation” (The Regents of the University of California, priority 2018, dated 2023)
# Tests used:
# BMDMs [1] = experiment: Substrate-specific respirometry in permeabilized cells; assay type: cell-based, mouse; details: 3 μM etomoxir
# HepG2 hepatoma cells = experiment: Maximal respiration in intact HepG2 hepatoma cells (positive control); assay type: cell-based; details: 3 μM etomoxir
# Procedure: All respirometry studies were conducted in either a Seahorse XF96 or XFe96 Analyzer. All experiments were conducted at 37° C., and at pH 7.4 (intact cells) or 7.2 (permeabilized cells and isolated mitochondria). Calculation of respiratory parameters was made according to standard protocols (Divakaruni, A. S., Paradyse, A., Ferrick, D. A., Murphy, A. N., and Jastroch, M. (2014a) Analysis and interpretation of microplate-based oxygen consumption and pH data. Meth. Enzym 547, 509-54), and all rates were corrected for non-mitochondrial respiration/background signal by subtracting the oxygen consumption rate insensitive to rotenone plus antimycin A.
# Detailed description of FIG. 5. (FIG. 5A) Maximal FCCP-stimulated respiration in response to 3 μM etomoxir in six cell types (experimental conditions in Materials and Methods). […] (n≥3 independent biological replicates). (FIG. 5B) (Left) Maximal respiration in HepG2 cells offered 8 mM glucose, 2 mM glutamine, and 2 mM pyruvate in the experimental medium with BPTES and UK5099 (both at 3 μM)±3 μM etomoxir. (n=4 independent biological replicates). (Right) Maximal respiration in 3T3-L1 adipocytes offered 1 mM glucose and 0.5 mM carnitine in the experimental medium with increasing concentrations of etomoxir. (n=3 independent biological replicates). […]
# BMDMs [2] = details: concentrations as high as 100 μM etomoxir; cited from earlier work
# CPT-1 = target: T1, CPT-1 (Homo sapiens, UniProt P50416); experiment: Palmitoyl CoA-driven respiration in permeabilized HepG2 cells; assay type: cell-based; design: endogenous in cells; host or cells: HepG2 (A5)
# T1 sequence (P50416 1-773): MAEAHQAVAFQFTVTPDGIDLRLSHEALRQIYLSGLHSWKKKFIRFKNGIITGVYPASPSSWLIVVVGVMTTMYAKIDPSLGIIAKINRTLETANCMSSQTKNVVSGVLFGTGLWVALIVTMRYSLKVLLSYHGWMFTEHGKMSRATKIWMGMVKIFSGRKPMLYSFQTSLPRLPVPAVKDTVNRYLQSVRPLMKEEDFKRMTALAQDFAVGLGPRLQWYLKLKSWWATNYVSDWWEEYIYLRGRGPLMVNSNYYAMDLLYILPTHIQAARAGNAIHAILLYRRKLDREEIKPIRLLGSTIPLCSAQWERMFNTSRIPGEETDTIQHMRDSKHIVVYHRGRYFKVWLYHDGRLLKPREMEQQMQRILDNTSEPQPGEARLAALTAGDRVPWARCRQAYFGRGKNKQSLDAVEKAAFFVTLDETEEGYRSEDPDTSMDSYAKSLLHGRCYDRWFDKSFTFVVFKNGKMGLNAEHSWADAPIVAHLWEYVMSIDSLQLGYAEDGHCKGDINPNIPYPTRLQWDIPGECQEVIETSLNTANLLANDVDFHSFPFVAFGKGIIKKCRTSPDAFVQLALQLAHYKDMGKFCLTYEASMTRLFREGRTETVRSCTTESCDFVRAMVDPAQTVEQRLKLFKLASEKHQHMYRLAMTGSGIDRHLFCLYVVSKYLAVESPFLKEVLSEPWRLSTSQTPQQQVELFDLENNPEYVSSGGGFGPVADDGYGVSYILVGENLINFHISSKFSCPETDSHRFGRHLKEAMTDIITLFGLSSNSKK
smiles,measurement,setting,value
CCOC(=O)[C@@]1(CCCCCCOc2ccc(Cl)cc2)CO1 [etomoxir],palmitoyl CoA oxidation,BMDMs [1],significant effect
same,respiration driven by substrates which do not require CPT-1,"BMDMs [1]; glutamate/malate, pyruvate/malate, palmitoylcarnitine/malate, succinate/rotenone",no effect
same,respiration,HepG2 hepatoma cells,sufficient to inhibit respiration
same,respiration in BMDMs,BMDMs [2],lack of significant changes in respiration
same,"EC50, FCCP-stimulated palmitoyl CoA-driven respiration",CPT-1,nanomolar
same,concentration of saturable effect,CPT-1,less than 3 μM
